From ChEMBL document CHEMBL5260813, “An overview on the recent developments of 1,2,4-triazine derivatives as anticancer compounds” (Eur J Med Chem, 2017)
pIC50: −log10 of the molar value. Values after ≈ are worked out from the molar mass of the structure shown. Each block holds one molecule with its values, some of them ahead of it.

Tests used:
[1] = molecular target: T1, Tyrosine-protein kinase JAK3 (Homo sapiens, UniProt P52333); assay: Inhibition of JAK3 (unknown origin)
T1 sequence (P52333 whole entry): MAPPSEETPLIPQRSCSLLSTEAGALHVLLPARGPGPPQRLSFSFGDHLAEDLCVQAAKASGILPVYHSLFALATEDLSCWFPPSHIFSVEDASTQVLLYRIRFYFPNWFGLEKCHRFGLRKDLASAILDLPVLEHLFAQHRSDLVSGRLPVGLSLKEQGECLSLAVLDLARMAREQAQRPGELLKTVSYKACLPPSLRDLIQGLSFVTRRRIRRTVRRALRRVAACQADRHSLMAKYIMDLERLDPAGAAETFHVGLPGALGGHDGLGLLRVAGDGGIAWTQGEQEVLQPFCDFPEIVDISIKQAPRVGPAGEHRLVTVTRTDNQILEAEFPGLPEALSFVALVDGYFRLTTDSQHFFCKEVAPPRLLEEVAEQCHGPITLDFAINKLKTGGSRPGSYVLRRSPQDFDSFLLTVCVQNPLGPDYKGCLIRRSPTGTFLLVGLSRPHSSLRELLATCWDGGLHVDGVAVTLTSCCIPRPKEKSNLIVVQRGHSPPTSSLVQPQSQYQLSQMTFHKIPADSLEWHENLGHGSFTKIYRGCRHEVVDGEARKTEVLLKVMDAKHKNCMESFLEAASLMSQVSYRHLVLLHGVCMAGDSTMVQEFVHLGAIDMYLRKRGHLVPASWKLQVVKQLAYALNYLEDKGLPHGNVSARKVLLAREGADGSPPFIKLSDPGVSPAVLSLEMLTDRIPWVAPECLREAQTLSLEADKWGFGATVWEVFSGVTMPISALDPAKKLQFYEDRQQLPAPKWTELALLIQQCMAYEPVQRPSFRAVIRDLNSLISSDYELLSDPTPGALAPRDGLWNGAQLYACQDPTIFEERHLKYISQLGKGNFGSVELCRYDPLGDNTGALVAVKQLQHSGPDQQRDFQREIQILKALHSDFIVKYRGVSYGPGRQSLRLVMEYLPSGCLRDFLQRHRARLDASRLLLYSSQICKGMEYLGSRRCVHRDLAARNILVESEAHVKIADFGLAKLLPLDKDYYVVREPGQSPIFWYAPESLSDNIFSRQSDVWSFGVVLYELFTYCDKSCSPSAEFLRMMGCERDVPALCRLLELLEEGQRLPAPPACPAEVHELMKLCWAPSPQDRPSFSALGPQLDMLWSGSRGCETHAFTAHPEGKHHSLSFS

[2] = molecular target: Tyrosine-protein kinase JAK2 (Homo sapiens, UniProt O60674); assay: Inhibition of JAK2 (unknown origin)
Sequence of Tyrosine-protein kinase JAK2 (O60674 whole entry): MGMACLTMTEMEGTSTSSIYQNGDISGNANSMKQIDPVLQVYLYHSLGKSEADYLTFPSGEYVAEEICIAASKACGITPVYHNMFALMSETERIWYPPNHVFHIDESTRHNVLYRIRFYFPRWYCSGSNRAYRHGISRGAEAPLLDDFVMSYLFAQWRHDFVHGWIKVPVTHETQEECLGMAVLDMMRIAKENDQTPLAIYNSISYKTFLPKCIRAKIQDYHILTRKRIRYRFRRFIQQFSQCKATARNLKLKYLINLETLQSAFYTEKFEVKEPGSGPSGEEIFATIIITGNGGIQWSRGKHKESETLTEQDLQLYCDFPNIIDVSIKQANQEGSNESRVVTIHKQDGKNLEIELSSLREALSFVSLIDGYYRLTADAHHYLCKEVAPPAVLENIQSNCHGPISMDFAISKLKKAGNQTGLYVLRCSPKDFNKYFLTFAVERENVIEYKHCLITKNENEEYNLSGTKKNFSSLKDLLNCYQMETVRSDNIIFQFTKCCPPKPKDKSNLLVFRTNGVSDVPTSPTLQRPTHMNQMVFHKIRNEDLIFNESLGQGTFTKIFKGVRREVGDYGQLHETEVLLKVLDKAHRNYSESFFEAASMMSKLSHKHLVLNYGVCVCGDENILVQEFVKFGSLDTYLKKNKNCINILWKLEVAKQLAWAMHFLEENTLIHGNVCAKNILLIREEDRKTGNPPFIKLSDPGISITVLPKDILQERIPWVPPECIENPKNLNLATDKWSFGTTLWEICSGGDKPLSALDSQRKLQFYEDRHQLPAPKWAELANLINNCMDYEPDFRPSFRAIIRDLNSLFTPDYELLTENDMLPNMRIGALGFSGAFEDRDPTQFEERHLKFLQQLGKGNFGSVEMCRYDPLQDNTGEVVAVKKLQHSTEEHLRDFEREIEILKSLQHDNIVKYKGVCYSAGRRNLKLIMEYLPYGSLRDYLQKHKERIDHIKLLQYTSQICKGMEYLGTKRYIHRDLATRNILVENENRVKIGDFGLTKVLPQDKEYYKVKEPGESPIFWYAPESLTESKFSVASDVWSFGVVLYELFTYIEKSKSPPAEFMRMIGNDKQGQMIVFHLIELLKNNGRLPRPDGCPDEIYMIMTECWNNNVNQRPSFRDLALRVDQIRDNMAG

HT-29 [3] = assay: Antiproliferative activity against human HT-29 cells assessed as inhibition of cell growth by SRB assay; format: functional, cell-based
HT-29 [4] = assay: Potency index, ratio of tirapazamine IC50 to compound IC50 for antiproliferative activity against human HT-29 cells; format: functional
[5] = molecular target: Cyclin-dependent kinase 2/cyclin E (Homo sapiens, UniProt P24941); assay: Inhibition of CDK2/cyclin E (unknown origin); format: protein-complex assay
HCT-116 = assay: Antiproliferative activity against human HCT-116 cells assessed as inhibition of cell growth; format: functional, cell-based
MCF7 = assay: Antiproliferative activity against human MCF7 cells assessed as inhibition of cell growth; format: functional, cell-based
[6] = molecular target: Cyclin-dependent kinase 2/cyclin E1 (Homo sapiens, UniProt P24941); assay: Inhibition of CDK2/cyclin E1 (unknown origin) expressed in Sf9 cells
[7] = molecular target: T2, Tyrosine-protein kinase SYK (Homo sapiens, UniProt P43405); assay: Inhibition of SYK in human Ramos cells assessed as reduction in anti IgM-induced phosphorylation of BLNK by flow cytometry assay; format: cell-based
[8] = molecular target: T2, Tyrosine-protein kinase SYK; assay: Inhibition of human SYK using 5-Fluo-Ahx-GAPDYENLQELNKK-Amid as substrate in presence of ATP by microfluidic mobility shift assay

pIC50 [1]: ≥ 8.00
pIC50 [2]: ≥ 8.00
Compound: CC(C)(C)CNC(=O)C(C)(C)Nc1cnnc(-c2c[nH]c3ncc(C#N)cc23)n1

Compound: CCc1nc2ccccc2[n+]([O-])n1
pIC50 (HT-29 [3]): < 5.52
Ratio IC50 (HT-29 [4]): 1.3

Compound: CN(C)CCNc1nc2ccccc2[n+]([O-])n1
pIC50 (HT-29 [3]): < 6.00
Ratio IC50 (HT-29 [4]): 3.9

pIC50 [1]: ≥ 8.00
pIC50 [2]: ≥ 8.00
Compound: CC(C)C(Nc1cnnc(-c2c[nH]c3ncc(C(N)=O)cc23)n1)C(=O)NCC(C)(C)C (stereo not given)

pIC50 [5]: 5.01
Compound: Cc1n[nH]c(=S)n(-c2nnc(-c3ccc(F)cc3)c(-c3ccc(F)cc3)n2)c1=O

pIC50 [1]: ≥ 8.00
pIC50 [2]: ≥ 8.00
Compound: CC(Nc1cnnc(-c2c[nH]c3ncc(C#N)cc23)n1)C(=O)NCC(C)(C)C (stereo not given)

Compound: COc1cc(Cc2nc(-c3ccc(Cl)cc3)nn3c(=S)[nH]nc23)cc(OC)c1OC
IC50 (HCT-116): 0.74 µg/mL
IC50 (MCF7): 0.74 µg/mL (≈ 1.67 µM)

pIC50 [5]: 5.42
Compound: Nc1ccc(F)cc1C1=NNC(Nc2ccc(F)cc2)NC1=O (stereo not given)

pIC50 [5]: 5.30
Compound: CNc1ccc(F)cc1C1=NNC(SC)NC1=O (stereo not given)

Compound: CN(C)CCCNc1nc2ccccc2[n+]([O-])n1
pIC50 (HT-29 [3]): 6.08
Ratio IC50 (HT-29 [4]): 1.2

Compound: COc1nc2ccccc2[n+]([O-])n1
pIC50 (HT-29 [3]): < 6.52
Ratio IC50 (HT-29 [4]): 3.3

Compound: CNCCNc1nc2ccccc2[n+]([O-])n1
pIC50 (HT-29 [3]): 5.64
Ratio IC50 (HT-29 [4]): 6.11

pIC50 [5]: 5.42
Compound: CSC1NN=C(c2cc(F)ccc2NC(=O)c2ccc(F)cc2)C(=O)N1 (stereo not given)

pIC50 [1]: ≥ 8.00
pIC50 [2]: ≥ 8.00
Compound: CC(C)(C)CNC(=O)C(C)(C)Nc1cnnc(-c2c[nH]c3ncc(C(N)=O)cc23)n1

Compound: [O-][n+]1nc(CCO)nc2ccccc21
pIC50 (HT-29 [3]): < 5.52
Ratio IC50 (HT-29 [4]): 1.2

pIC50 [6]: 5.28
Compound: Oc1cccc(-n2nc(-c3cc(O)c(O)c(O)c3)c3nc(-c4ccccc4)nnc32)c1

pIC50 [5]: 5.42
Compound: O=C1NC(SSC2NN=C(c3cc(F)ccc3NC(=O)c3ccc(F)cc3)C(=O)N2)NN=C1c1cc(F)ccc1NC(=O)c1ccc(F)cc1 (stereo not given)

pIC50 [5]: 5.42
Compound: Nc1ccc(F)cc1C1=NNC(S)NC1=O (stereo not given)

pIC50 [5]: 4.95
Compound: NNC(=S)Nc1nnc(-c2ccc(F)cc2)c(-c2ccc(F)cc2)n1

pIC50 [6]: 4.82
Compound: Oc1ccccc1-n1nc(-c2cc(O)c(O)c(O)c2)c2nc(-c3ccccc3)nnc21

pIC50 [5]: 5.00
Compound: Fc1ccc(-c2nnc(-n3c(=S)[nH][nH]c3=S)nc2-c2ccc(F)cc2)cc1

pIC50 [1]: ≥ 8.00
pIC50 [2]: ≥ 8.00
Compound: CC(C)C(Nc1cnnc(-c2c[nH]c3ncc(C#N)cc23)n1)C(=O)NCC(C)(C)C (stereo not given)

Compound: COc1cc(-c2csc3nnc(-c4ccc(Cl)cc4)nc23)cc(OC)c1OC
IC50 (HCT-116): 0.74 µg/mL
IC50 (MCF7): 0.74 µg/mL (≈ 1.79 µM)

pIC50 [5]: 4.96
Compound: Fc1ccc(-c2nnc(-n3cn[nH]c3=S)nc2-c2ccc(F)cc2)cc1

pIC50 [1]: ≥ 8.00
pIC50 [2]: ≥ 8.00
Compound: COc1cnc2[nH]cc(-c3nncc(NC(C(=O)NCC(C)(C)C)C(C)C)n3)c2c1 (stereo not given)

pIC50 [6]: 5.35
Compound: COc1cc(-c2nnc3c(n2)c(-c2cc(O)c(O)c(O)c2)nn3-c2cc(OC)c(OC)c(OC)c2)cc(OC)c1OC

Compound: CN1CCN(CC(=O)Nc2cc(C(=O)Nc3ncc(-c4ccccc4)nn3)ccc2OC(F)(F)F)CC1
pIC50 (HCT-116): 7.80

pIC50 [1]: ≥ 8.00
pIC50 [2]: ≥ 8.00
Compound: CC(Nc1cnnc(-c2c[nH]c3ncc(C(N)=O)cc23)n1)C(=O)NCC(C)(C)C (stereo not given)

pIC50 [7]: 7.85
pIC50 [8]: 9.10
Compound: N#Cc1c[nH]c2c(Nc3nc(N[C@@H]4CCCCC4N)nnc3C(N)=O)cccc12 (single isomer, unassigned)
